Laboratory results: patent US9206246B2, “Heparin/heparan sulfate-dependent inhibitors of activated protein C and uses thereof in treating hemophilic disorders” (Academia Sinica, priority 2012, dated 2015)

Legend:
[1] = target: protein C zymogen (PC) (Homo sapiens, UniProt P04070); assay: Surface plasmon resonance, immobilized protein C zymogen; format: binding; conditions: DrKIn-I 31.25, 62.5, 125 nM
Method: A: 70 μg of DrKIn-I in 0.1 ml equilibrating buffer (20 mM Tris-HCl, pH 8.0) was applied to a 5 ml HiTrap Heparin column and eluted with a 50 ml gradient from 0.0-1.0 M NaCl. The salt concentration corresponding to the elution peak was determined to be 0.95 M. B, Binding of DrKIn-I (0.78, 1.56, 2.34, 3.13, 4.68 and 6.25 nM) to immobilized APC was assessed in buffer containing 10 mM HEPES, 0.15 M NaCl, 3 mM EDTA and 0.05% P20 at a flow rate of 60 μl/min at 25° C. […] The thin lines represent the global fit to the response data. […] Results shown are means±SD of three experiments. Representative binding traces are shown.
Biacore T200 (GE Healthcare) was used for analysis. APC or PC dissolved in 10 mM acetate buffer (pH 5.0) was immobilized on a CM5 sensor chip to a response unit (RU) of 1000 with an amine coupling kit. Associations and dissociations of DrKIn-I were performed in 10 mM HEPES (N-2-hydroxyethylpiperazine-N′-2-ethanesulfonic acid; pH 7.4), 150 mM NaCl, 3 mM EDTA (ethylenediaminetetraacetic acid) and 0.05% P20 with a flow rate of 60 μl/min. The sensor surface was regenerated with 90 μl of 2 M MgCl2 and the signals obtained were subtracted by that obtained from the reference channel that had not been coated with ligands. Binding kinetics were determined by global fitting to 1:1 Langmuir binding model using the Biaevaluation software (GE Healthcare).

[2] = system: endogenously generated APC in normal plasma; assay: Thrombin generation assay in normal plasma; format: biochemical; conditions: 200 nM DrKIn-I, 100 nM TM, 2 μg/ml heparan sulfate
Method: Thrombin generation in normal (A) and protein C-deficient (B) plasma. Experiments were performed in the presence of heparan sulfate (2 μg/ml). Solid lines represent thrombin generation in the presence of 100 nM thrombomodulin (TM) and varying concentrations of DrKIn-I (●, 0 nM; ▪, 40 nM; ▴, 80 nM; ◯, 200 nM). Dashed lines represent thrombin generation in the absence of TM and DrKIn-I.
(§1) Briefly, 80 μl of either normal plasma, protein C-deficient plasma, FVIII-deficient plasma or FIX deficient plasma containing 2 μM corn trypsin inhibitor, 2 μg/ml heparan sulfate (four disaccharide units long), 30 μM DOPC/DOPS/DOPE (60:20:20) and 100 nM recombinant TM was incubated with 20 μl of 500-fold diluted TF solution (Innovin; Dade Behring) in the absence or presence of the indicated concentrations of DrKIn-I. Following incubation for 3 minutes at 37° C., thrombin generation was initiated by the dispensation of 20 μl of 2.5 mM fluorogenic substrate (Z-Gly-Gly-Arg-AMC.HCl) dissolved in 0.15 M NaCl, 60 mg/ml BSA and 100 mM CaCl2. Measurements were taken at 1 minute intervals on a SpectraMax M2^e Microplate Reader using an excitation wavelength of 360 nm and an emission wavelength of 460 nm. In some assays, experiments were performed in the absence of thrombomodulin. Results were evaluated using the Technothrombin TGA software (Technoclone).

[3] = system: trypsin; assay: Selectivity profile, amidolytic activity of trypsin; format: biochemical; conditions: equimolar DrKIn-I and enzyme active site, trypsin 5 nM
Method: (§2) In each of these experiments, the molar ratio of protease active site to inhibitor was 1:1. The final concentrations of these proteases and their respective substrates were as follows: FXIIa (20 nM)/S-2302 (0.2 mM), FXIa (2.5 nM)/S-2366 (0.2 mM), FXa (10 nM)/S-2222 (1.3 mM), FIXa (200 nM)/Spectrozyme FIXa (1.3 mM), FVIIa (100 nM)/S-2288 (1.3 mM), thrombin (5 nM)/T-1637 (0.2 mM), kallikrein (5 nM)/S-2302 (0.2 mM), plasmin (20 nM)/S-2251 (0.2 mM), tPA (80 nM)/Spectrozyme tPA (0.2 mM), uPA (100 nM)/S-2288 (1.3 mM), APC (10 nM)/Spectrozyme PCa (0.2 mM) and trypsin (5 nM)/S-2222 (0.2 mM). Results shown are means±SD of at least three experiments.
(§3) DrKIn-I, with or without heparin, was screened for its inhibitory activity against trypsin and also against serine proteases in the coagulation cascade (FXIIa, FXIa, FXa, FIXa, FVIIa, thrombin and kallikrein) and in the fibrinolytic system (plasmin, tPA and uPA). The amidolytic activities of these proteases were determined in the presence or absence of equimolar concentrations of DrKIn-I using their respective chromogenic substrates.

[4] = system: FIX-deficient plasma; assay: Thrombin generation assay in FIX-deficient plasma; format: biochemical; conditions: 100 nM TM, 2 μg/ml heparan sulfate
Method: (A) Representative thrombin generation curves in FVIII-deficient and FIX-deficient plasma performed in the presence of heparan sulfate (2 μg/ml), TM (100 nM) and varying concentrations of DrKIn-I (●, 0 nM; ▪, 20 nM; ▴, 40 nM; ▾, 80 nM; ◯, 200 nM). Dashed lines represent thrombin generation in the absence of TM and DrKIn-I. (B-C) Activity in FVIII-deficient (B) and FIX-deficient (C) plasma. Left panels show ETP; right panels, peak thrombin. For comparison, dashed lines represent the activity of normal plasma containing TM and heparan sulfate in the absence of the inhibitor. Results are represented as means±SEM of at least three independent experiments.
as §1, with “Measurements were taken at 1 minute intervals on a SpectraMax M2^e Microplate Reader using an excitation wavelength of 360 nm and an emission wavelength of 460 nm. In some assays, experiments were performed in the absence of thrombomodulin.” left out

[5] = target: T1, thrombin (Homo sapiens, UniProt P00734); assay: Selectivity profile, amidolytic activity of thrombin; format: biochemical
T1 construct: thrombin, plasma kallikrein and plasmin were obtained; purchased Haematologic Technologies
Method: as §2, §3

[6] = system: APC in normal plasma; assay: APTT-based APC resistance assay in normal plasma; format: biochemical; conditions: 200 nM DrKIn-I, 40 nM APC, 2 μg/ml heparan sulfate
Method: APTT-based clotting times were measured in normal, FVIII-deficient and FIX-deficient plasma containing 2 μg/ml heparan sulfate in the presence or absence of 40 nM APC and the indicated concentrations of DrKIn-I. Results shown are means±S.D. of at least three experiments.
50 μl of normal plasma, FVIII-deficient plasma or FIX-deficient plasma supplemented with 2 μg/ml heparan sulfate (four disaccharide units long) was exposed to APC (40 nM) and varying concentrations of DrKIn-I (50-200 nM). 50 μl of activated partial thromboplastin (APTT) reagent (HYPHEN Biomed) was added and incubated for 1 minute at 37° C. Finally, clotting was initiated by adding 50 μl of 20 mM CaCl2. Coagulation times, which reflect the activities of APC, were recorded on a coagulometer (Hemostasis Analyzer KC-1; Sigma Diagnostics).

## DrKIn-I (CGGNDNNFETRKKCRQTCGAPRKGRPT)
[1]
  binding to immobilized protein C zymogen: No binding was observed
[2]
  thrombin generation: thrombin generation reached that observed in the absence of APC activity
[3]
  inhibition of trypsin: ~45%
[4]
  DrKIn-I concentration correcting ETP to normal levels: 160 nM
  peak thrombin level relative to normal plasma (partial correction): approximately 85%
[5]
  inhibitory activity against thrombin: no inhibitory activities
[6]
  clotting time: almost completely restored the clotting time to that observed in the absence of APC
